Earlier results as cited in PMC7466129, “Solid Lipid Nanoparticles for Duodenum Targeted Oral Delivery of Tilmicosin” (Pharmaceutics, 2020).
Converted amounts (≈) assume the structure as drawn.

Experiments:
[1] = parameters: method as in PMID 31614726; settings: 100 °C, 30 min
[2] = test system: Actinobacillus pleuropneumoniae; parameters: method as in PMID 29139136
Mycoplasma = test system: Mycoplasma; parameters: method as in PMID 29149886

CC[C@H]1OC(=O)C[C@@H](O)[C@H](C)[C@@H](O[C@@H]2O[C@H](C)[C@@H](O)[C@H](N(C)C)[C@H]2O)[C@@H](CCN2C[C@H](C)C[C@H](C)C2)C[C@@H](C)C(=O)/C=C/C(C)=C/[C@@H]1CO[C@@H]1O[C@H](C)[C@@H](O)[C@@H](OC)[C@H]1OC [tilmicosin, Tilmicosin]
saturation solubility in carnauba wax [1]: 50%
saturation solubility in hydrogenated castor oil [1]: 25%
minimum inhibitory concentration (MIC) [2]: 0.5 µg/mL (≈ 0.575 µM)
minimum inhibitory concentration (MIC) (Mycoplasma): ≤ 0.25 µg/mL
